Data: article PMC9611092 (Viruses, 2022)
Read-outs that look alike come from different tables or passages of the source.

Columns and labels:
[1] = in vitro; conditions: African green monkey
[2] = Cytotoxicity of compounds on HEK293T cells (MTT); assay type: cell-based; conditions: human
[3] = tested on: lentiviral particles exhibiting S protein of SARS-CoV-2; experiment: microbe, parasite or virus in culture; assay type: cell-based; conditions: for inhibition at 25 µM: Severe acute respiratory syndrome coronavirus 2, 48 h, read-out: % Neutralization at 25 µM
[4] = tested on: SARS-CoV-2 Wuhan lineage B, hCoV-19/Australia/VIC01/2020 (EPI_ISL_406844); experiment: microbe, parasite or virus in culture; assay type: cell-based; conditions: for IC50: Severe acute respiratory syndrome coronavirus 2, Vero C1008, 96 h
[5] = tested on: SARS-CoV-2 Delta lineage B.1.617.2, hCoV-19/Russia/PSK-2804/2021; experiment: microbe, parasite or virus in culture; assay type: cell-based; conditions: for IC50: Severe acute respiratory syndrome coronavirus 2, Vero C1008, 96 h
[6] = tested on: SARS-CoV-2 Omicron lineage B.1.1.529, hCoV-19/Russia/Moscow171619-031221/2021; experiment: microbe, parasite or virus in culture; assay type: cell-based; conditions: Severe acute respiratory syndrome coronavirus 2, Vero C1008, 96 h
[7] = biological target: main protease (3CLpro) of SARS-CoV-2 (Severe acute respiratory syndrome coronavirus 2, UniProt P0DTD1); experiment: biochemical
[8] = tested on: main viral protease 3CLPro; conditions: cited from earlier work; for active against 3CLPro at a dose of: range for the four flavonoids
[9] = Severe acute respiratory syndrome coronavirus 2
[10] = HEK293T cells, 72 h, MTT, read-out: CC50

For `CC(=O)c1c(O)c(C)c(O)c2c1O[C@@H]1Cc3onc(C)c3C(=O)[C@]21C` [Compound 14, (1R,9R)-6-acetyl-3,5-dihydroxy-1,4,14-trimethyl-8,12-dioxa-13-azatetracyclo[7.7.0.0^2,7.0^11,^1⁵]hexadeca-2(7),3,5,11(15),13-pentaen-16-one], the CC50 at 4 days [1] was 296 ± 11.9 µM, the CC50 at 72 h [2] was over 1000 µM and the inhibition at 25 µM [3] was 15%. The melting point was 152 to 156 °C and the “antiviral activity (in words)” value [4] was “does not exhibit antiviral properties”.

`CC(=O)C1=C(O)C=C2Oc3c(C(=O)CSC(C)C(=O)O)c(O)c(C)c(O)c3[C@@]2(C)C1=O` (mixture of isomers) [Compound 5b, (2S)-2-({2-[(1R)-12-acetyl-3,5,11-trihydroxy-1,4-dimethyl-13-oxo-8-oxatricyclo[7.4.0.0^2,7]trideca-2(7),3,5,9,11-pentaen-6-yl]-2-oxoethyl}sulfanyl)propanoic acid and (2R)-2-({2-[(1R)-12-acetyl-3,5,11-trihydroxy-1,4-dimethyl-13-oxo-8-oxatricyclo [7.4.0.0^2,7]trideca-2(7),3,5,9,11-pentaen-6-yl]-2-oxoethyl}sulfanyl)propanoic acid (1:1)] showed a CC50 at 4 days [1] of 176 ± 22.6 µM, a CC50 at 72 h [2] of over 1000 µM and an inhibition at 25 µM [3] of 41%. For the same molecule, the melting point was 91 to 95 °C, the “antiviral activity (in words)” value [4] was “low activity” and the IC50 [4] was 76.5 ± 8.2 µM.

With `CC(=O)C1=C(O)C=C2Oc3c4c(c(C)c(O)c3[C@@]2(C)C1=O)OCC4=O` [Compound 8] the CC50 at 4 days [1] was 176 ± 19.9 µM, the CC50 at 72 h [2] was 358 ± 31.1 µM and the “activity against the pseudovirus system (in words)” value [3] was “no activity”. For the same molecule, the inhibition at 25 µM [3] was 0%, the “antiviral activity (in words)” value [5] was “almost no activity” and the IC50 [5] was 95 ± 8.7 µM. The IC50 [6] was 47 ± 6.5 µM, the IC50 [7] was about 200 µM and the IC50 [4] was 44.3 ± 5.2 µM.

`CCC1=C(O)C[C@H]2Oc3c(C(C)=O)c(O)c(C)c(O)c3[C@@]2(C)C1=O` [Compound 12, (2R,7R)-10-acetyl-4-ethyl-5,11,13-trihydroxy-2,12-dimethyl-8-oxatricyclo[7.4.0.0^2,7]trideca-1(13),4,9,11-tetraen-3-one] gave a CC50 at 4 days [1] of 262 ± 32 µM, a CC50 at 72 h [2] of over 1000 µM and an IC50 [3, 9] of 28 ± 3.7 µM. For the same molecule, the inhibition at 25 µM [3] was 53%, the IC50 [5] was 85 ± 11.2 µM and the IC50 [6] was 60 ± 12.1 µM. It also gave a melting point of 58 to 62 °C and an IC50 [4] of 91 ± 7.1 µM.

`CC(=O)C1=C(O)C[C@H]2Oc3c(C(C)=O)c(O)c(C)c(O)c3[C@@]2(C)C1=O` [Compound 11, (2R,7R)-4,10-diacetyl-5,11,13-trihydroxy-2,12-dimethyl-8-oxatricyclo [7.4.0.0^2,7]trideca-1(9),4,10,12-tetraen-3-one] gave a CC50 at 4 days [1] of 84.9 ± 12.1 µM, a CC50 at 72 h [2] of 469 ± 24.2 µM and an IC50 [3, 9] of 22 ± 3.2 µM. It also gave an inhibition at 25 µM [3] of 78% and an IC50 [4] of 21 ± 3.5 µM.

For `CC(=O)c1c(O)c(C)c(O)c2c1OC1=Cc3onc(C)c3C(=O)[C@@]12C` [Compound 2], the CC50 at 4 days [1] was 252 ± 31 µM, the CC50 at 72 h [2] was over 1000 µM and the “In Vitro (Pseudotype-Based Assay)” value [3] was “yes”. The IC50 [3, 9] was 30 ± 2.9 µM, the inhibition at 25 µM [3] was 55% and the “antiviral activity (in words)” value [4] was “did not exhibit antiviral activity at all”.

With `CC(=O)C1=C(O)C=C2Oc3c(C(C)=O)c(O)c(C)c(O)c3[C@@]2(C)C1=O` [Compound 1, (R)-(+)-Usnic acid] the CC50 [1] was 147 ± 22.1 µM, the CC50 at 72 h [2, 10] was over 1000 µM and the “activity against the pseudovirus system (in words)” value [3] was “is not an entry inhibitor”. It also gave an inhibition at 25 µM [3] of 12%, an IC50 [5] of 20.9 ± 3.4 µM and an IC50 [6] of 3.7 ± 0.8 µM. The “inhibition of the main protease (in words)” value [7] was “not an inhibitor” and the IC50 [4] was 10.9 ± 2.2 µM.

In the case of `CCC(CC)COC(=O)[C@H](C)N[P@](=O)(OC[C@H]1O[C@@](C#N)(c2ccc3c(N)ncnn23)[C@H](O)[C@@H]1O)Oc1ccccc1` [Remdesivir, reference compound], the CC50 [1] is reported as 711 ± 21.2 µM, the IC50 [5] is reported as 2.1 ± 0.16 µM and the IC50 [6] is reported as 2 ± 0.13 µM. For the same molecule, the IC50 [4] was 3.8 ± 0.42 µM.

In the case of `O=c1c(O)c(-c2cc(O)c(O)c(O)c2)oc2cc(O)cc(O)c12` [Myricetin], the “active against 3CLPro at a dose of” value [8] is given as 1.2 to 5.8 µM.

Work on `CC(=O)c1c(O)c(C)c(O)c2c1O[C@@H]1CC/C(=C(/C)O)C(=O)[C@]21C` [Compound 13, (2R,4E,7R)-10-acetyl-11,13-dihydroxy-4-(1-hydroxyethylidene)-2,12-dimethyl-8-oxatricyclo [7.4.0.0^2,7] trideca-1(13),9,11-trien-3-one] yielded a CC50 at 4 days [1] of 72.7 ± 14.6 µM, a CC50 at 72 h [2] of 151 ± 14.9 µM and an IC50 [3] of 5.28 ± 0.8 µM. For the same molecule, the IC50 [3, 9] was 5.3 µM, the inhibition at 25 µM [3] was 95% and the IC50 [5] was 13.5 ± 2.1 µM. It also gave an IC50 [6] of 6.6 ± 1.9 µM, a melting point of 100 to 103 °C and an IC50 [4] of 6.7 ± 1.4 µM.

In the case of `O=C1c2c(O)cc(O)cc2O[C@H](c2cc(O)c(O)c(O)c2)[C@H]1O` [Dihydromyricetin], the “active against 3CLPro at a dose of” value [8] is listed as 1.2 to 5.8 µM.

With `CCOC(=O)c1c(CSc2ccccc2)n(C)c2cc(Br)c(O)c(CN(C)C)c12` [Arbidol, reference compound] the CC50 at 72 h [2, 10] was 19.8 ± 4.6 µM, the IC50 [3, 9] was 12.6 ± 4.1 µM and the inhibition at 25 µM [3] was 58%.

With `CC(=O)C1=C(O)C=C2Oc3c(C(=O)CSCCC(=O)O)c(O)c(C)c(O)c3[C@@]2(C)C1=O` [Compound 5a] the CC50 at 4 days [1] was 177 ± 18.2 µM, the CC50 at 72 h [2] was over 1000 µM and the “activity against the pseudovirus system (in words)” value [3] was “no activity”. For the same molecule, the inhibition at 25 µM [3] was 0% and the “antiviral activity (in words)” value [4] was “no antiviral activity at all”.

Molecule `CC(=O)c1c(O)c(C)c(O)c2c1OC1=CC(=O)/C(=C(/C)N)C(=O)[C@@]12C` [Compound 7] has a CC50 at 4 days [1] of 528 ± 16 µM, a CC50 at 72 h [2] of 850 ± 22.6 µM and an inhibition at 25 µM [3] of 12%. The IC50 [7] was about 200 µM and the “antiviral activity (in words)” value [4] was “has no antiviral activity at all”.

For `O=c1cc(-c2ccc(O)cc2)oc2cc(O)c(O)c(O)c12` [Scutellarein], the “active against 3CLPro at a dose of” value [8] is listed as 1.2 to 5.8 µM.

For `COc1ccc(-c2cc(=O)c3c(O)c(O)c(O)cc3o2)cc1` [4′-O-methylscutellarein], the “activity against the main protease (in words)” value [8] is given as “submicromolar”.

`CC(=O)c1c(O)c(C)c(O)c2c1OC1=CC(=O)c3c(C)noc3[C@@]12C` [Compound 3] gave a CC50 at 4 days [1] of 15.5 ± 2.8 µM, a CC50 at 72 h [2] of 150 ± 18.5 µM and an IC50 [3, 9] of 32 ± 5.1 µM. For the same molecule, the inhibition at 25 µM [3] was 65%, the IC50 [5] was 9.1 ± 1.8 µM and the IC50 [6] was 3.5 ± 1.1 µM. It also gave an IC50 [4] of 9.2 ± 2.4 µM.

For `O=c1c(O)c(-c2ccc(O)c(O)c2)oc2cc(O)c(O)c(O)c12` [Quercetagetin], the “active against 3CLPro at a dose of” value [8] is listed as 1.2 to 5.8 µM.

For `CC(=O)C1=C(O)C=C2Oc3c(C(=O)CO)c(O)c(C)c(O)c3[C@@]2(C)C1=O` [Compound 10, (2R)-4-acetyl-5,11,13-trihydroxy-10-(2-hydroxyacetyl)-2,12-dimethyl-8-oxatricyclo[7.4.0.0^2,7]trideca-1(9),4,6,10,12-pentaen-3-one], the CC50 at 4 days [1] was 306 ± 28.6 µM, the CC50 at 72 h [2] was 750 ± 36.6 µM and the inhibition at 25 µM [3] was 45%. For the same molecule, the IC50 [5] was 9.7 ± 1.4 µM, the IC50 [6] was 17.5 ± 3.8 µM and the IC50 [7] was about 200 µM. It also gave a melting point of 107 to 110 °C and an IC50 [4] of 25.3 ± 2.1 µM.

`CC(=O)C1=C(O)C=C2Oc3c(C(C)=O)c(O)c(C)c(O)c3[C@@]2(C)[C@@H]1O` [Compound 6] gave a CC50 [1] of 99 ± 12.1 µM, a CC50 at 72 h [2, 10] of 168 ± 21.2 µM and an inhibition at 25 µM [3] of 40%. It also gave an IC50 [7] of 112 µM and an IC50 [4] of 65.3 ± 7.4 µM.
